Target: T1, hCGRP (human calcitonin gene-related peptide) receptor (Homo sapiens, UniProt O60894+Q16602)
T1 construct: SK-N-MC neuroblastoma cells (ATCC® HTB-10™) that endogenously express the hCGRP receptor; host or cells: SK-N-MC neuroblastoma cells
Assay: Inhibition of cAMP production by CGRP receptor antagonists (HTRF) in SK-N-MC cells
Format: cell-based
Conditions: SK-N-MC cells endogenously expressing hCGRP receptor; human CGRP 0.8 nM as agonist; Kb=IC50/[1+([Agonist]/EC50)]; mean ± SEM
Procedure: The hCGRP (human calcitonin gene-related peptide) receptor is functionally coupled to the Gas proteins. Stimulation of hCGRP results in an increased synthesis of intracellular cAMP and can be blocked by the addition of receptor antagonists. Receptor activity is thus a reflection of the amount of cAMP present within cells which can be detected using standard in vitro technology.
Cultured SK-N-MC neuroblastoma cells (ATCC® HTB-10™) that endogenously express the hCGRP receptor are grown in Eagle's Minimum essential medium (HYCLONE™) supplemented with 10% heat-inactivated Fetal bovine serum (FBS; GIBCO®), Non-Essential Amino Acids (GIBCO®), 1 mM sodium pyruvate, 2 mM L-glutamine, 100 U/mL of penicillin, and 10 μg/mL of streptomycin to about 70% confluency. After providing fresh medium, the cells are incubated at 37° C. overnight. On the day of the assay, cells are detached using ACCUTASE® (MP Biomedicals), resuspended in assay buffer [Hank's Balanced Salt Solution/Dulbecco's phosphate-buffered saline with […] each of CaCl2 and MgCl2 mixed 1:2, 3.3 mM 4-(2-hydroxyethyl)-1-piperazineethanesulfonic acid, 0.03% bovine serum albumin, and 0.5 mM 1-methyl-3-isobutylxanthine (as inhibitor of […])], and seeded 3-5K/well into 384-well, poly-D-lysine coated white plates (BD Biosciences).
For dose-response studies, compounds are serially diluted 1:3 in dimethyl sulfoxide and then 1:10 into assay buffer. Human CGRP (0.8 nM; Bachem) as a receptor-specific agonist for the hCGRP receptor is mixed with diluted compound and added to the cells as the challenge stimulant at their EC80 concentrations.
The amount of intracellular cAMP is quantitated using HTRF technology (Cisbio) as per vendor instructions. Briefly, cAMP-d2 conjugate and anti-cAMP-cryptate conjugate in lysis buffer are incubated with the treated cells at RT for 90 min. The HTRF signal is immediately detected using an ENVISION® plate reader (Perkin-Elmer) to calculate the ratio of fluorescence at […]. The raw data are converted to cAMP amount (pmole/well) using a cAMP standard curve generated for each experiment. Relative EC50 values are calculated from the top-bottom range of the concentration response curve using a four-parameter logistic curve fitting program (ACTIVITYBASE® v5.3.1.22 or GENEDATA SCREENER® v12.0.4), and Kb values are estimated as agonist-corrected IC50 values using the equation: Kb=(IC50)/[1+([Agonist]/EC50)]. Estimated Kb values are reported as mean values±SEM, averaged from the number of runs (n).
Following the procedure essentially as described above, the compounds of Examples 1-12 have a Kb measured at human CGRP as shown in Table 3.

T1 sequence (Q16602 23-461): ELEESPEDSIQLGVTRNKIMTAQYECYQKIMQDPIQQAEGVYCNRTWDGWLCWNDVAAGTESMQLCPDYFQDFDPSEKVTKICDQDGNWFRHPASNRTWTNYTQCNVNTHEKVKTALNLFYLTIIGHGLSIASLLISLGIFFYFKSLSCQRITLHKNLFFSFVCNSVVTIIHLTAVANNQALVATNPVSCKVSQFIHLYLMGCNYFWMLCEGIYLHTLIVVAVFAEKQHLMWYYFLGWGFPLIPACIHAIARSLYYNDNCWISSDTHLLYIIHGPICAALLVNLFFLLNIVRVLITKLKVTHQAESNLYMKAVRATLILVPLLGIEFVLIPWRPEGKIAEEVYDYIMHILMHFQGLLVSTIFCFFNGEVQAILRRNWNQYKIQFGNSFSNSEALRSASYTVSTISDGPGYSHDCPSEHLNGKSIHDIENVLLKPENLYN
T1 sequence (O60894 27-148): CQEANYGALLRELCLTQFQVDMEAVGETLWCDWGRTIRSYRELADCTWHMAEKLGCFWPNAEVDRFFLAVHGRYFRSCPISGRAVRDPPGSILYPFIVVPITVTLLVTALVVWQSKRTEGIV

Kb [nM] | SMILES
0.295 ± 0.056 | Cc1cc(CNC(=O)c2ccc([C@@H](C)[C@]3(C)CC(=O)NC3=O)cc2)cc(C2CCCC2)n1 [Example 12, N-[(2-cyclopentyl-6-methylpyridin-4-yl)methyl]-4-{(1R)-1-[(3S)-3-methyl-2,5-dioxopyrrolidin-3-yl]ethyl}benzamide]
0.582 ± 0.228 | Cc1cc(CNC(=O)c2ccc([C@@H](C)[C@]3(C)CC(=O)NC3=O)cc2)nc(C2CC2)c1 [Example 7, N-[(6-cyclopropyl-4-methyl-2-pyridyl)methyl]-4-[(1R)-1-[(3S)-3-methyl-2,5-dioxo-pyrrolidin-3-yl]ethyl]benzamide]
1.51 ± 0.14 | Cc1cc(C#N)nc(CNC(=O)c2ccc([C@@H](C)[C@]3(C)CC(=O)NC3=O)cc2)c1 [Example 3, N-[(6-cyano-4-methyl-2-pyridyl)methyl]-4-[(1R)-1-[(3S)-3-methyl-2,5-dioxo-pyrrolidin-3-yl]ethyl]benzamide]
0.546 ± 0.226 | Cc1cc(CNC(=O)c2ccc([C@@H](C)[C@]3(C)CC(=O)NC3=O)cc2)cc(C)n1 [Example 1, N-[(2,6-dimethylpyridin-4-yl)methyl]-4-{(1R)-1-[(3S)-3-methyl-2,5-dioxopyrrolidin-3-yl]ethyl}benzamide]
0.375 ± 0.172 | Cc1cc(CNC(=O)c2ccc([C@@H](C)[C@]3(C)CC(=O)NC3=O)cc2)cc(C2CC2)n1 [Example 6, N-[(2-cyclopropyl-6-methyl-4-pyridyl)methyl]-4-[(1R)-1-[(3S)-3-methyl-2,5-dioxo-pyrrolidin-3-yl]ethyl]benzamide]

Second part, the compound before the results:

SMILES | Kb [nM]
Cc1cc(CNC(=O)c2ccc([C@@H](C)[C@]3(C)CC(=O)NC3=O)cn2)cc(C2CC2)n1 [Example 9, N-[(2-cyclopropyl-6-methyl-4-pyridyl)methyl]-5-[(1R)-1-[(3S)-3-methyl-2,5-dioxo-pyrrolidin-3-yl]ethyl]pyridine-2-carboxamide] | 1.15 ± 0.181
Cc1cc(CNC(=O)c2ccc([C@@H](C)[C@]3(C)CC(=O)NC3=O)cc2)cc(C2CCC2)n1 [Example 11, N-[(2-cyclobutyl-6-methylpyridin-4-yl)methyl]-4-{(1R)-1-[(3S)-3-methyl-2,5-dioxopyrrolidin-3-yl]ethyl}benzamide] | 0.11 ± 0.011
Cc1cc(CNC(=O)c2ccc([C@@H](C)[C@]3(C)CC(=O)NC3=O)cc2)cc(C(C)C)n1 [Example 5, N-[(2-isopropyl-6-methyl-4-pyridyl)methyl]-4-[(R)-1-[(3S)-3-methyl-2,5-dioxo-pyrrolidin-3-yl]ethyl]benzamide] | 0.718 ± 0.0045
CCc1cc(CNC(=O)c2ccc([C@@H](C)[C@]3(C)CC(=O)NC3=O)cc2)cc(C)n1 [Example 10, N-[(2-ethyl-6-methylpyridin-4-yl)methyl]-4-{(1R)-1-[(3S)-3-methyl-2,5-dioxopyrrolidin-3-yl]ethyl}benzamide] | 0.6 ± 0.0431
Cc1cc(CNC(=O)c2ccc([C@@H](C)[C@]3(C)CC(=O)NC3=O)cn2)cc(C)n1 [Example 8, N-[(2,6-dimethyl-4-pyridyl)methyl]-5-[(1R)-1-[(3S)-3-methyl-2,5-dioxo-pyrrolidin-3-yl]ethyl]pyridine-2-carboxamide] | 1.25 ± 0.0045
Cc1cc(C)nc(CNC(=O)c2ccc([C@@H](C)[C@]3(C)CC(=O)NC3=O)cc2)c1 [Example 2, N-[(4,6-dimethyl-2-pyridyl)methyl]-4-[(l R)-1-[(3S)-3-methyl-2,5-dioxo-pyrrolidin-3-yl]ethyl]benzamide] | 2.22 ± 1.47
Cc1cc(CNC(=O)c2ccc([C@@H](C)[C@]3(C)CC(=O)NC3=O)cc2)cc(C#N)n1 [Example 4, N-[(2-cyano-6-methyl-4-pyridyl)methyl]-4-[(1R)-1-[(3S)-3-methyl-2,5-dioxo-pyrrolidin-3-yl]ethyl]benzamide] | 23.5 ± 0.925

System: CGRP receptor
Assay: Capsaicin-induced dermal blood flow (DBF), laser Doppler imaging, in nonhuman primates
Format: in vivo
Conditions: 3 mg/kg orally, 90 min prior to capsaicin; cynomolgus NHP; compared to vehicle; p<0.003
Excerpt: Capsaicin-induced dermal blood flow (DBF) may be used as a target engagement biomarker to assess CGRP receptor activity in nonhuman primates (NHPs). Methods are adapted from earlier published procedures [Hershey et al., Regulatory Peptides, Volume 127, Issue 1-3, pp. 71-77, 2005].
Animal studies may be performed under protocols approved by the Covance Institutional Animal Care and Use Committee. Cynomolgus NHPs may be used given the close homology between NHP and human CGRP receptor. The study population may include healthy, CGRP antagonist naive cynomolgus NHP males weighing ˜3-4 kg.
Cynomolgus NHPs are enrolled in the study based on prescreening for capsaicin responsiveness. […] NHPs are used in a cross over design in which all NHPs received all doses after a two week wash-out period. Total n=10 NHPs per group. […]
Analysis and Statistics: LDI repeat scans are analyzed using Moor software v.5.2 (Moor Instruments, Wilmington, Del.) by region of interest signal analysis, and Microsoft Excel worksheets are used for averaging the signal from the regions of interest at a given time point. […] Analyzed data is entered into Graphpad PRISM® 4.0 for graphing and a repeated measurement mixed-effect model in SAS® 9.1 is used for statistical analysis. Data is expressed as mean+/−SD.

SMILES | group mean inhibition of capsaicin-induced blood flow increase [%]
Cc1cc(CNC(=O)c2ccc([C@@H](C)[C@]3(C)CC(=O)NC3=O)cc2)cc(C)n1 [Example 1, N-[(2,6-dimethylpyridin-4-yl)methyl]-4-{(1R)-1-[(3S)-3-methyl-2,5-dioxopyrrolidin-3-yl]ethyl}benzamide] | 27.4

Same assay, conditions: 30 mg/kg orally, 90 min prior to capsaicin; cynomolgus NHP; compared to vehicle; p<0.00001

SMILES | group mean inhibition of capsaicin-induced blood flow increase [%]
Cc1cc(CNC(=O)c2ccc([C@@H](C)[C@]3(C)CC(=O)NC3=O)cc2)cc(C)n1 [Example 1, N-[(2,6-dimethylpyridin-4-yl)methyl]-4-{(1R)-1-[(3S)-3-methyl-2,5-dioxopyrrolidin-3-yl]ethyl}benzamide] | 40.6
